These results are taken from patent publication US20250197389A1, “NITROGEN-CONTAINING HETEROCYCLIC COMPOUND” (SHANGHAI SHIJIANG BIOTECHNOLOGY CO., LTD, priority 2022, published 2025).

Each structure is given as a SMILES string.

One assay deals with mPTP-inactive Daoy cell. The experiment in a line: Inhibitory effect on mPTP-inactive Daoy cell (PPIF shRNA; Promega CellTiter-Glo, intracellular ATP). The note with it: Daoy cell transfected with virus vector carrying PPIF shRNA. The assay is classed as cell-based, human. An excerpt: The activity of mitochondria permeability transition pore (mPTP) was regulated by the PPIF protein. […] PPIF protein activity was restricted by the expression level of PPIF protein in cell.
Compound `COc1ccc2c(c1N1CCN(C)CC1)C(C1CCCC1)N1CCc3cc4c(cc3C1=C2)OCO4` (centres unmarked) [AB35519] showed an IC50 of 6.03 µM.
On the same count and under the same terms, the value for `COc1ccc2c(c1OC)C(C)N1CCc3cc4c(cc3C1=C2CCCc1ccccc1)OCO4` (centres unmarked) [AB35411] was 1.78 µM.
Still for that read-out and setting: with `COc1ccc2c(c1N1CCN(C)CC1)C(C1CCCC1)N1CCc3cc4c(cc3C1=C2)OCO4` (centres unmarked) [AB35510] the figure was 0.29 µM.

Staying with this assay, now noted: Homo sapiens, Daoy, Daoy cell transfected with virus vector carrying PPIF shRNA.
In the case of `CCCCCOc1c(OC)ccc2c1C(C(Cl)(Cl)Cl)N1CCc3cc4c(cc3C1=C2)OCO4` (centres unmarked) [AB35505], 0.42 µM corresponded to half-maximal inhibition (IC50).
Same read-out and setting: with `COc1ccc2c(c1OC)C(c1ccccc1)N1CCc3cc4c(cc3C1=C2)OCO4` (centres unmarked) [AB36467] the figure was 4.63 µM.
Still for that read-out and setting: the value for `COc1ccc2c(c1OCCCCN)C(C)N1CCc3cc4c(cc3C1=C2)OCO4` (centres unmarked) [AB35429] was 2.23 µM; that for `CCCCCCC1=C2c3cc4c(cc3CCN2C(C(Cl)(Cl)Cl)c2c1ccc(OC)c2OC)OCO4` (centres unmarked) [AB35508] was 0.99 µM; that for `COc1ccc2c(c1OC)C(C(Cl)(Cl)Cl)N1CCc3cc4c(cc3C1=C2CCCc1ccccc1)OCO4` (centres unmarked) [AB35417] was 1.61 µM.
Turning to `COc1ccc2c(c1OCCCCc1ccccc1)C(C(Cl)(Cl)Cl)N1CCc3cc4c(cc3C1=C2)OCO4` (centres unmarked) [AB35535], the IC50 was 0.18 µM. Compared with the last compound, the IC50 is about 8.9-fold lower.
The compound `COc1ccc2c(c1OCCF)CN1CCc3cc4c(cc3C1=C2)OCO4` [AB35599] registered a half-inhibitory concentration (IC50) of 2.43 µM. This IC50 lies about 14-fold higher than the previous one.
Compound `C=CCOc1c(OC)ccc2c1C(C(Cl)(Cl)Cl)N1CCc3cc4c(cc3C1=C2)OCO4` (centres unmarked) [AB35534] gave an IC50 of 1.28 µM.
Regarding `COc1ccc2c(c1OC)C(C1CCCC1)N1CCc3cc4c(cc3C1=C2Cc1ccc(C(C)C)cc1)OCO4` (centres unmarked) [AB35460], the IC50 stood at 0.78 µM. Against the preceding compound, the IC50 is about 1.6-fold lower.
The same measure, in the same setting: with `[2H]C1c2c(ccc(OC)c2OC)C=C2c3cc4c(cc3CCN21)OCO4` (centres unmarked) [AB36415] the figure was 1.07 µM; with `CCCOc1c(OC)ccc2c1CN1CCc3cc4c(cc3C1=C2)OCO4` [AB35536], 0.4 µM; with `COc1ccc2c(c1N1CCC(C)CC1)CN1CCc3cc4c(cc3C1=C2)OCO4` [AB35545], 0.2 µM.
On the same count and under the same terms, with `COc1ccc2c(c1OCCCCOc1ccccc1)C(C(Cl)(Cl)Cl)N1CCc3cc4c(cc3C1=C2)OCO4` (centres unmarked) [AB35476] the figure was 1.08 µM; with `COc1ccc2c(c1OCCCCCCCl)C(C(Cl)(Cl)Cl)N1CCc3cc4c(cc3C1=C2)OCO4` (centres unmarked) [AB35475], 1.23 µM.
On to `COc1ccc2c(c1OCCCCl)C(C)N1CCc3cc4c(cc3C1=C2)OCO4` (centres unmarked) [AB35456], for which the IC50 is 2.76 µM.
Take `COc1ccc2c(c1OC/C=C(\C)CCC=C(C)C)C(C(Cl)(Cl)Cl)N1CCc3cc4c(cc3C1=C2)OCO4` (centres unmarked) [AB35405]: the midpoint of inhibition, the IC50, lay at 1.21 µM.
On the same count and under the same terms, with `COc1ccc2c(c1N1CCC(C(F)(F)F)CC1)C(C(Cl)(Cl)Cl)N1CCc3cc4c(cc3C1=C2)OCO4` (centres unmarked) [AB35514] the figure was 1.33 µM; with `COc1ccc2c(c1N1CCC(C)CC1)C(C(Cl)(Cl)Cl)N1CCc3cc4c(cc3C1=C2)OCO4` (centres unmarked) [AB35453], 0.43 µM.
`[2H]C([2H])([2H])Oc1c(OC)ccc2c1C([2H])(C1CCCC1)N1CCc3cc4c(cc3C1=C2)OCO4` (centres unmarked) [AB36509] displayed an IC50 of 0.45 µM.
Still for that read-out and setting: with `COc1ccc2c(c1OC)C(C(Cl)(Cl)Cl)N1CCc3cc4c(cc3C1=C2CCc1ccccc1)OCO4` (centres unmarked) [AB35444] the figure was 3.33 µM; with `CCOc1c(OC)ccc2c1C(C(Cl)(Cl)Cl)N1CCc3cc4c(cc3C1=C2)OCO4` (centres unmarked) [AB35499], 3.15 µM; with `CCCC1=C2c3cc4c(cc3CCN2C(C(Cl)(Cl)Cl)c2c1ccc1c2OCO1)OCO4` (centres unmarked) [AB36427], 4.3 µM.
On to `CCCCCC1=C2c3cc4c(cc3CCN2C(C)c2c1ccc(OC)c2OC)OCO4` (centres unmarked) [AB35422], for which the IC50 is 2.59 µM.
Still for that read-out and setting: the value for `COc1ccc2c(c1OC)C(C1CCCC1)N1CCc3cc4c(cc3C1=C2CCCCCCBr)OCO4` (centres unmarked) [AB35523] was 1.39 µM; that for `COc1ccc2c(c1OC)CN1CCc3cc4c(cc3C1=C2Cc1ccc(C(C)C)cc1)OCO4` [AB31870] was 1.86 µM.

The test system of another assay is mPTP-active Daoy cell. The experiment in a line: Inhibitory effect on mPTP-active Daoy cell (Promega CellTiter-Glo, intracellular ATP). The note with it: Daoy cell transfected with empty virus vector without PPIF shRNA. The assay is classed as cell-based, human. In general terms: ATP-based viability assays read luminescence as a measure of living cells.
Compound `COc1ccc2c(c1N1CCN(C)CC1)C(C1CCCC1)N1CCc3cc4c(cc3C1=C2)OCO4` (centres unmarked) [AB35519] returned an IC50 of 13.6 µM.
The compound `COc1ccc2c(c1OC)C(C)N1CCc3cc4c(cc3C1=C2CCCc1ccccc1)OCO4` (centres unmarked) [AB35411] registered an IC50 of 3.51 µM. Against the preceding compound, the IC50 is about 3.9-fold lower.
Same read-out and setting: with `COc1ccc2c(c1N1CCN(C)CC1)C(C1CCCC1)N1CCc3cc4c(cc3C1=C2)OCO4` (centres unmarked) [AB35510] the figure was 0.83 µM.

The assay is the same for the next values; noted with them: Homo sapiens, Daoy, Daoy cell transfected with empty virus vector without PPIF shRNA.
The compound `CCCCCOc1c(OC)ccc2c1C(C(Cl)(Cl)Cl)N1CCc3cc4c(cc3C1=C2)OCO4` (centres unmarked) [AB35505] returned an IC50 of 1.24 µM.
Same read-out and setting: the value for `COc1ccc2c(c1OC)C(c1ccccc1)N1CCc3cc4c(cc3C1=C2)OCO4` (centres unmarked) [AB36467] was 12.1 µM; that for `COc1ccc2c(c1OCCCCN)C(C)N1CCc3cc4c(cc3C1=C2)OCO4` (centres unmarked) [AB35429] was 5.28 µM; that for `CCCCCCC1=C2c3cc4c(cc3CCN2C(C(Cl)(Cl)Cl)c2c1ccc(OC)c2OC)OCO4` (centres unmarked) [AB35508] was 2.25 µM.
Same read-out and setting: with `COc1ccc2c(c1OC)C(C(Cl)(Cl)Cl)N1CCc3cc4c(cc3C1=C2CCCc1ccccc1)OCO4` (centres unmarked) [AB35417] the figure was 3.62 µM; with `COc1ccc2c(c1OCCCCc1ccccc1)C(C(Cl)(Cl)Cl)N1CCc3cc4c(cc3C1=C2)OCO4` (centres unmarked) [AB35535], 0.59 µM.
With `COc1ccc2c(c1OCCF)CN1CCc3cc4c(cc3C1=C2)OCO4` [AB35599], the 50% inhibitory concentration (IC50) worked out at 5.41 µM. This IC50 lies about 9.2-fold higher than the previous one.
For `C=CCOc1c(OC)ccc2c1C(C(Cl)(Cl)Cl)N1CCc3cc4c(cc3C1=C2)OCO4` (centres unmarked) [AB35534], the IC50 amounted to 3.92 µM.
The same measure, in the same setting: the value for `COc1ccc2c(c1OC)C(C1CCCC1)N1CCc3cc4c(cc3C1=C2Cc1ccc(C(C)C)cc1)OCO4` (centres unmarked) [AB35460] was 1.96 µM; that for `[2H]C1c2c(ccc(OC)c2OC)C=C2c3cc4c(cc3CCN21)OCO4` (centres unmarked) [AB36415] was 2.18 µM; that for `CCCOc1c(OC)ccc2c1CN1CCc3cc4c(cc3C1=C2)OCO4` [AB35536] was 1.3 µM.
The compound `COc1ccc2c(c1N1CCC(C)CC1)CN1CCc3cc4c(cc3C1=C2)OCO4` [AB35545] returned a half-inhibitory concentration (IC50) of 0.53 µM.
`COc1ccc2c(c1OCCCCOc1ccccc1)C(C(Cl)(Cl)Cl)N1CCc3cc4c(cc3C1=C2)OCO4` (centres unmarked) [AB35476]: the IC50 was 2.35 µM.
For `COc1ccc2c(c1OCCCCCCCl)C(C(Cl)(Cl)Cl)N1CCc3cc4c(cc3C1=C2)OCO4` (centres unmarked) [AB35475], the 50% inhibitory concentration (IC50) was found to be 2.64 µM.
On the same count and under the same terms, with `COc1ccc2c(c1OCCCCl)C(C)N1CCc3cc4c(cc3C1=C2)OCO4` (centres unmarked) [AB35456] the figure was 5.77 µM; with `COc1ccc2c(c1OC/C=C(\C)CCC=C(C)C)C(C(Cl)(Cl)Cl)N1CCc3cc4c(cc3C1=C2)OCO4` (centres unmarked) [AB35405], 2.68 µM; with `COc1ccc2c(c1N1CCC(C(F)(F)F)CC1)C(C(Cl)(Cl)Cl)N1CCc3cc4c(cc3C1=C2)OCO4` (centres unmarked) [AB35514], 3.42 µM.
Same read-out and setting: the value for `COc1ccc2c(c1N1CCC(C)CC1)C(C(Cl)(Cl)Cl)N1CCc3cc4c(cc3C1=C2)OCO4` (centres unmarked) [AB35453] was 1.23 µM; that for `[2H]C([2H])([2H])Oc1c(OC)ccc2c1C([2H])(C1CCCC1)N1CCc3cc4c(cc3C1=C2)OCO4` (centres unmarked) [AB36509] was 2.12 µM.
On the same count and under the same terms, the value for `COc1ccc2c(c1OC)C(C(Cl)(Cl)Cl)N1CCc3cc4c(cc3C1=C2CCc1ccccc1)OCO4` (centres unmarked) [AB35444] was 6.85 µM; that for `CCOc1c(OC)ccc2c1C(C(Cl)(Cl)Cl)N1CCc3cc4c(cc3C1=C2)OCO4` (centres unmarked) [AB35499] was 6.45 µM; that for `CCCC1=C2c3cc4c(cc3CCN2C(C(Cl)(Cl)Cl)c2c1ccc1c2OCO1)OCO4` (centres unmarked) [AB36427] was 11.9 µM.
Regarding `CCCCCC1=C2c3cc4c(cc3CCN2C(C)c2c1ccc(OC)c2OC)OCO4` (centres unmarked) [AB35422], half-maximal inhibition (IC50) required 5.27 µM.
In turn, `COc1ccc2c(c1OC)C(C1CCCC1)N1CCc3cc4c(cc3C1=C2CCCCCCBr)OCO4` (centres unmarked) [AB35523] gave an IC50 of 3.22 µM.
Same read-out and setting: with `COc1ccc2c(c1OC)CN1CCc3cc4c(cc3C1=C2Cc1ccc(C(C)C)cc1)OCO4` [AB31870] the figure was 3.94 µM.

As usually defined, the IC50 is the concentration that inhibits the measured activity by half. A high value points to weaker potency.
